US20240400986A1, “MEMBRANE BOUND COMPOSITIONS AND METHODS RELATING TO SAME” (FLAGSHIP PIONEERING INNOVATIONS VII, LLC, priority 2021, published 2024)
Peptide text beside a SMILES is read from it. * marks the point of attachment. Cbz = O=C(OCc1ccccc1)*

Assays:
[1] = tested on: cardiomyocytic cell line derived from human ventricular heart tissue; test: Small molecule compound screen of gigasome production in cardiomyocytic monocultures; conditions: for Number of Gigasomes Produced: Table 22, cardiomyocytes, 24 hours;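 as to all read-outs here: gigasomes shed into the culture medium were imaged by confocal microscopy and counted as round particles lacking nuclear signal, extrapolated to the whole well, fold change is relative to DMSO vehicle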
[2] = tested on: neuronal cells; test: Gigasome-mediated extraction of APP-CTFs upon γ-secretase and proteasome inhibition (fixed plates, confocal); type: cell-based, human
Protocol: Cells were treated with the γ-secretase inhibitor L-685,458 at 5 μM, either alone or in combination with the proteasome inhibitor MG-132 at 0.1 μM. A vehicular control amount of DMSO was added to the media to comparatively study cargo signals within cells and gigasomes. Treatments were carried out in reduced serum-containing media (3% FBS) for 24 hours. Disease-related cargo presence within cells and in gigasomes was characterized and quantified by confocal microscopy analysis of 4% paraformaldehyde fixed cells, following (immuno)fluorescent labeling of cytosolic, nuclear and cargo-specific protein markers. In some experiments β-III tubulin and Alexa Fluor® 488 phalloidin were used to mark the cytosol and proximal plasma membrane, respectively. To detect APP-CTFs, an antibody against the C-terminus of APP (C-APP) was used (see Table 12). Non-specific labeling was blocked by incubation with 5% normal goat serum in PBS in the presence of 0.05% saponin, for 1 h at room temperature. Primary antibodies were incubated overnight at 4° C., followed by incubation with Alexa Fluor®-conjugated secondary antibodies for 1 hour at room temperature. Nuclei were counterstained with DAPI.
A range of 5-8 images per well were taken from replicate experiments to capture a final total range of 150-200 cells. […] The cellular cargo fluorescence intensity in the red channel was quantified by subtracting the background signal from each image, using the ImageJ built-in “subtract background” function with a default rolling ball radius of 50 pixel. The cargo signal (integrated density) in the red channel was measured and normalized to the number of nuclei counted in each field. […]
For particle analysis, the cytosolic and F-actin/membrane signals were merged into single RGB image, converted to grayscale and then thresholded to create a cellular mask of objects in the field of view, as calculated by the “Li” autothreshold algorithm. […] The quantity or distribution of objects obtained from the particle analysis was divided by the number of cells counted in each field to obtain a normalized quantity or distribution.

[3] = tested on: neuronal cell line derived from human neuroblastoma; test: Small molecule compound screen of gigasome production in neuronal monocultures
[4] = tested on: neuronal cells; test: Gigasome-mediated extraction of exogenously added Tau fibrils (live plated cells and culture media); type: cell-based, human
Protocol: P301S mutant Tau fibrils conjugated to the fluorescent probe ATTO 488 (Table 12) were resuspended at 50 nM in reduced serum-containing media and added to half of the cell-containing wells for 3 hours at 37° C. Following Tau fibrils uptake, cells were trypsinized to remove excess Tau fibrils attached to the cell surface, labeled with Hoechst 33342 to visualize nuclei and CellTracker Orange to visualize the cytoplasm and plated in a new poly-L-lysine-coated 24-well glass bottom plates. Cells were allowed to attach (2-3 hours), before addition of 0.1 μM MG-132 in reduced serum-containing media for additional 18-20 h.
For analysis, 10-15×16-bit images per well were captured with a 20× objective and processed for analysis of gigasome production. Composite images were separated in the different channels. The background was subtracted from the green Tau fibrils cargo channel, as described Example 13.a and the signal thresholded using the “Yen” autothreshold algorithm. The cargo signal (integrated density) in the green channel was measured and normalized to the number of nuclei counted in each field in the Tau-F conditions. […] The quantity or distribution of objects obtained from the particle analysis was divided by the number of cells counted in each field to obtain a normalized quantity or distribution. […]

[5] = tested on: neuronal cells; test: Live microscopy of neuronal gigasome generation; type: cell-based, human; conditions: 0.1 M MG-132; live time-lapse microscopy; compared to DMSO control
Protocol: Cells were stained with Hoechst 33342 to visualize nuclei and nuclear material, CellTracker Green to visualize cytoplasm, and MitoTracker Deep Red to visualize mitochondria. Gigasome production was then induced with various drugs as described in Example 1. Cell cultures were imaged every 15-30 minutes under a time lapse for up to 48 hours (FIGS. 1A and 1B). For image analysis, ImageJ and Zeiss ZEN Blue software was used. Gigasomes were identified and quantified as distinct circular/spherical vesicles in the extracellular space of the neurons, between 1-20 μm in diameter. Gigasomes were identified based on having positive neuronal cytoplasmic signal and negative Hoechst 33342 signal. The presence of mitochondria in gigasomes was measured via respective fluorescent signal.
Time-lapse montages were produced and edited to show the formation of gigasomes from parent neuronal cells after treatment with […] MG-132 (FIGS. 1A and 1B). Gigasomes and parent cells were identified and tracked throughout the duration of the time lapse. In some experiments, gigasomes produced by parent cells in MG-132 treatment groups were identified.

[6] = tested on: cardiomyocytic cell line derived from human ventricular heart tissue; test: Cell viability in cardiomyocyte compound screen (CellTiter-Glo); type: cell-based; conditions: human, 24 h
[7] = Homo sapiens, Cardiomyocyte, 24 h, read-out: Fold Change of Gigasomes Produced vs. DMSO

**Q.** With `CC(C)C[C@@H](C=O)NC(=O)[C@H](CC(C)C)NC(=O)[C@H](CC(C)C)NC(=O)OCc1ccccc1` [MG-132, reference compound] (Cbz-Leu-Leu-Leu-aldehyde) as the compound, how does the fold induction at 0.01 µM [1, 7] read?
**A.** 1.5 to 1.75

**Q.** And the fold induction at 0.1 µM [1, 7]?
**A.** > 4

**Q.** And the “Number of Gigasomes Produced” value ([1]; dose 10 nM)?
**A.** 150-175

**Q.** And the “Number of Gigasomes Produced” value ([1]; dose 100 nM)?
**A.** >400

**Q.** What about the “C-APP+ve particle intensity distribution (gigasome diameter and brightness)” value ([2]; compared to γ-secretase inhibitor and DMSO conditions (FIG. 6D)) of the same compound?
**A.** larger in diameter and brighter

**Q.** And the “intracellular APP-CTF levels (C-APP immunoreactivity)” value ([2]; γ-secretase inhibitor 5 μM, MG-132 0.1 μM, alone or combined, 24 h, compared to DMSO)?
**A.** does not increase

**Q.** What about the fold induction at 0.1 µM ([3]; Homo sapiens, 24 h, read-out: Fold Change of Gigasomes Produced vs. DMSO) of the same compound?
**A.** 1.5 to 1.75

**Q.** And the “Number of Gigasomes Produced” value ([3]; neuronal cells, dose 100 nM, 24 hours)?
**A.** 55-65

**Q.** What about the “gigasomes per 1000 cells” value ([4]; gigasomes harvested from cell culture media (FIG. 8E)) of the same compound?
**A.** approximately 4.5 per 1000 cells

**Q.** And the “gigasomes per 1000 cells” value ([4]; plated live cells, Tau fibrils 50 nM 3 h, MG-132 0.1 μM 18-20 h (FIG. 8C))?
**A.** approximately 325 per 1000 cells

**Q.** And the gigasome production [5]?
**A.** increase

**Q.** And the Viability ([6]; 10 nM)?
**A.** 100%

**Q.** What about the Viability ([6]; 100 nM) of the same compound?
**A.** 50-75%
